Laboratory results as given in patent US20110104159A1, “COMPOSITIONS AND METHODS FOR TREATING, CONTROLLING, REDUCING, AMELIORATING, OR PREVENTING ALLERGY” (priority 2006, published 2011).
Values joined by “and” are separate entries in the source; they are usually repeats but may differ in a detail not shown here. Equal entries are not always repeated. Where two headings read alike, the source gives them in different places.

Tests used:
leukocytes (PMN) = experiment: Leukocytes (PMN) measurement in aqueous humor; format: in vivo, Rabbit; details: for PMN in aqueous humor at the second paracentesis, Mean: group mean; for PMN in aqueous humor at the second paracentesis: individual eye sample, listed as BOL
Method: Each rabbit was placed in a restraint device and tagged with the alphanumeric code. The formulations were instilled (50 μl) into the conjunctival sac of both eyes 180, 120, 90 and 30 min before the first paracentesis; then 15, 30, 90 min after the first paracentesis. To perform the first paracentesis the animals were anaesthetized by intravenous injection of 5 mg/kg Zoletil® (Virbac; 2.5 mg/kg tiletamine HCl and 2.5 mg/kg zolazepam HCl) and one drop of local anesthetic (Novesina®, Novartis) was administered to the eye. Anterior chamber paracentesis was performed with a 26 G needle attached to a tuberculin syringe; the needle was introduced into the anterior chamber through the cornea, taking care not to damage the tissues. Two hours after the first paracentesis, the animals were sacrificed with 0.4 ml Tanax® (Intervet International B.V.) and the second paracentesis was performed. About 100 μl of aqueous humor were removed at the second paracentesis. Aqueous humor was immediately split in four aliquots and stored at −80° C. until analysis. Then both eyes were enucleated and the iris-ciliary body was carefully excised, placed in polypropylene tubes, and stored at −80° C. until analysis.
For the determination of the number of leukocytes we used a haemocytometer (Improved Neubauer Chamber; Brigth-line, Hausser Scientific) and a Polyvar 2 microscope (Reichert-Jung).

human eosinophils = experiment: Cytokine-sustained (GM-CSF or IL-5) eosinophil survival; format: cell-based; details: for IC50: Homo sapiens, Eosinophil, 48 h, 0.1% FBS
CXCR4 receptor = CXCR4 receptor surface expression in human eosinophils (FACS), transactivation marker; format: cell-based; details: 24 h
Method: FACS was performed to measure cell surface expression of annexin I and CXCR4 as indicators of glucocorticoid-mediated transactivation. Human eosinophils were double-stained with a red dye-conjugated secondary antibody to trace changes in the expression of CXCR4 or I, and a green dye-conjugated annexin V to exclude apoptotic cells from the analysis. The cells were counted and transferred to a 24-well plate (10^6 cells/well) and serum-starved (0.1% FBS) for 24 h.
At the end of the incubation, the cells were harvested and each sample was divided into two tubes to run parallel tests for annexin I and CXCR4 surface expression. After rinsing all samples with a HBSS solution containing 1% BSA, the cells were incubated for 45 min on a shaker with anti-annexin I or anti-CXCR4 antibodies (1:200) on ice; the negative control was incubated with an isotype-specific control antibody.
The cells were then washed twice with HBSS/BSA buffer before exposure to the Alexa Fluor® 568-conjugated secondary antibody. The excess of unbound antibody was washed away, and all samples were incubated for 15 min in the presence of annexin V-Fluos. […] Electronic gates were set on annexin V-negative cells and CXCR4 or annexin I-positive cells. Data from 10,000 cells/sample were analyzed using dedicated software (Becton, Dickinson and Company). The % of CXCR4 or annexin I positive cells was calculated.

[1] = system: ovalbumin-sensitized guinea pigs; experiment: Conjunctival eosinophil infiltration (histology) in OVA-challenged guinea pigs; format: in vivo, guinea pig; details: 0.4% eye drops; 24 h after OVA challenge; vs OVA-treated animals
Method: Male Dunkin-Hartley guinea pigs were actively immunized by i.p. injection of 200 μg OVA in 2 ml saline with 40 mg aluminum hydroxide (positive control) or saline alone (negative control), as previously reported. […] Negative controls received saline alone.
Conjunctival clinical symptoms were rated blind on both eyes using the following scale: 0, no symptoms; 1, slight conjunctival redness with or without tears; 2, mild conjunctival redness with tears and mild chemosis; 3, mild conjunctival redness with tears and moderate chemosis; 4, severe conjunctival redness with tears and partial lid eversion; 5, severe conjunctival redness with tears and lids more than half closed. The animals were euthanized 24 h after OVA challenge by i.p. injection of Tanax® (3 ml/kg; Hoechst AG, Frankfurt-am-Main, Germany) and the conjunctivas were carefully excised and each was divided into two samples for subsequent investigations. One sample was fixed in 10% buffered paraformaldehyde solution and paraffin-embedded; slides, 6 μm thick, were stained as described. The number of eosinophils in each field was counted under light microscopy (×500 magnification). In the other sample eosinophil peroxidase activity was measured.

[2] = system: primary human conjunctival epithelial cells (HConEpiC); experiment: IL-4 and TNF-α-induced cytokine release in HConEpiC (Luminex); format: cell-based; details: 24 h
Method: (§1) Primary human conjunctival epithelial cells (HConEpiC) were seeded in two 24-well plates in EpiLife medium+1% Human Corneal Growth Supplement (HCGS; contains bovine pituitary extract, bovine insulin, hydrocortisone, bovine transferrin and mouse epidermal growth factor) at 2×10^4 cells/well. When the cells were confluent (4-5 days after seeding), they were incubated in EpiLife GF medium without glucocorticoids (EpiLife basic medium supplemented with 50 μg/ml bovine pituitary extract, 5 μg/ml bovine insulin and 5 ng/ml mouse epidermal growth factor) for 18 h. […] Culture medium was collected. Cytokine analysis was performed on the culture medium using 2 separate cytokine/chemokine Luminex kits (Kit 1: G-CSF, GM-CSF, IL-6, IL-8, IP-10, MCP-1, RANTES; Kit 2: eotaxin-3, CTACK). ICAM-1 expression was determined in cell lysates using a Luminex kit.
(§2) Median fluorescence intensity (MFI) was used to obtain the concentration of each cytokine and ICAM-1 in pg/ml based on the standard curve of each cytokine assayed by Luminex using the StatLIA software. ICAM-1 expression was expressed as pg/mg protein. All data were expressed as mean±SEM. Statistical analysis was performed using a two-way ANOVA-Contrast test with Factor 1 being drug and Factor 2 being dose (JMP 8 software, SAS Institute, Cary, N.C.). P<0.05 was considered statistically significant. Data were analyzed either directly or after Box-Cox transformations (9, 10).

ICAM-1 = experiment: IL-4 and TNF-α-induced ICAM-1 expression in HConEpiC cell lysates (Luminex); format: cell-based, human; details: all doses 10-1000 nM, 24 h
Method: as §1
as §2, with “P<0.05 was considered statistically significant.” left out

[3] = conditions similar to the in vitro models used [28]; cited from earlier work

Cc1ccc2c(NC[C@](O)(CC(C)(C)c3cc(F)cc4c3OCC4)C(F)(F)F)cccc2n1 [BOL-303242-X, (R)-1,1,1-Trifluoro-4-(5-fluoro-2,3-dihydrobenzofuran-7-yl)-4-methyl-2-{[(2-methyl-5-quinolyl)amino]methyl}pentan-2-ol]
PMN in aqueous humor at the second paracentesis, Mean (leukocytes (PMN); 0.1% topical): 28.333 number/μl | PMN in aqueous humor at the second paracentesis (leukocytes (PMN); 0.1% topical): 20 number/μl (4×) and 40 number/μl and 50 number/μl | PMN in aqueous humor at the second paracentesis, Mean (leukocytes (PMN); 0.5% topical): 21.250 number/μl | PMN in aqueous humor at the second paracentesis (leukocytes (PMN); 0.5% topical): 40 number/μl (2×) and 20 number/μl (3×) and 10 number/μl (3×) | PMN in aqueous humor at the second paracentesis, Mean (leukocytes (PMN); 1% topical): 28.750 number/μl | PMN in aqueous humor at the second paracentesis (leukocytes (PMN); 1% topical): 30 number/μl (3×) and 20 number/μl (3×) and 40 number/μl (2×) | Reversal of cytokine-sustained survival at higher cytokine concentrations (human eosinophils; GM-CSF 200 pM or IL-5 100 pM, data not shown): not, in fact, able to reverse cytokine-sustained survival | IC50 (human eosinophils; GM-CSF 70 pM, read-out: IC50, inhibition of GM-CSF-induced eosinophil survival): 158 nM | IC50 (human eosinophils; IL-5 30 pM, read-out: IC50, inhibition of interleukin-5-induced eosinophil survival): 399 nM | CXCR4 receptor surface expression (CXCR4 receptor; 10 000 nM, significantly lower than 1000 nM dexamethasone): partially increased this receptor on the cell surface | CXCR4 receptor surface expression (CXCR4 receptor; up to 5000 nM, vs vehicle-treated or control eosinophils): did not change CXCR4 receptor expression | Eosinophil infiltration of the conjunctiva (histology) [1]: much less marked | Eotaxin-3 level induced by IL-4 plus TNF-α ([2]; 100 nM): significant elevation of eotaxin-3 | Eotaxin-3 level induced by IL-4 plus TNF-α ([2]; 10, 30, 300 and 1000 nM): no effect | IL-8 level induced by IL-4 plus TNF-α ([2]; 10-1000 nM): no effect | IP-10 level induced by IL-4 plus TNF-α ([2]; 30, 100, 300 and 1000 nM): significantly inhibited | IL-6 level induced by IL-4 plus TNF-α ([2]; 300 and 1000 nM): significantly reduced | CTACK level induced by IL-4 plus TNF-α ([2]; all doses 10-1000 nM): significant reduction | G-CSF level induced by IL-4 plus TNF-α ([2]; all doses 10-1000 nM): significantly elevated | GM-CSF level induced by IL-4 plus TNF-α ([2]; all doses 10-1000 nM): significant reduction | MCP-1 level induced by IL-4 plus TNF-α ([2]; all doses 10-1000 nM): significant reduction | RANTES level induced by IL-4 plus TNF-α ([2]; all doses 10-1000 nM): significant reduction | IL-4 plus TNF-α-induced ICAM-1 expression in cell lysates (ICAM-1): significantly decreased | Stability of the compound [3]: stable
